Reference: patent publication US6605634B2 (Amgen, Inc., priority 1996, dated 2003)

tested on: production of tumor necrosis factor (TNF) by monocytes activated with bacterial lipopolysaccharide (LPS); experiment: Lipopolysaccharide-activated Monocyte TNF Production Assay; type: cell-based; details: Homo sapiens, TNF in culture supernatants by ELISA, read-out: IC50 (concentration of test compounds causing a 50% reduction in TNF production)
Method: Lipopolysaccharide-activated Monocyte TNF Production Assay
Test compounds were evaluated in vitro for the ability to inhibit the production of tumor necrosis factor (TNF) by monocytes activated with bacterial lipopolysaccharide (LPS). Fresh residual source leukocytes (a byproduct of plateletpheresis) were obtained from the local blood bank and peripheral blood mononuclear cells (PBMCs) were isolated by density gradient centrifugation on Ficol-Paque Plus (Pharmacia). PBMCs were suspended at 2×10^6/ml in DMEM supplemented to contain 2% FCS (10 mM), 0.3 mg/ml glutamate, 100 U/ml penicillin G and […] streptomycin sulfate (complete media). Cells were plated into Falcon flatbottom 96 well culture plates (200 μl/well) and cultured overnight at 37° C. and 6% CO2. Nonadherent cells were removed by washing with 200 μl/well of fresh medium. Wells containing adherent cells (˜70% monocytes) were replenished with 100 μl of fresh medium.
Preparation of Test Compound Stock Solutions
Test compounds were dissolved in […]. Compound stock solutions were prepared to an initial concentration of […]. Stocks were diluted initially to 20-200 μM in complete media. Nine two-fold serial dilutions of each compound were then prepared in complete medium.
Treatment of Cells with Test Compounds and Activation of TNF Production with Lipopolysaccharide
One hundred microliters of each test compound dilution were added to microtiter wells containing adherent monocytes and 100 μl complete medium. Monocytes were cultured with test compounds for 60 min at which time 25 μl of complete medium containing 30 ng/ml lipopolysaccharide from E. coli K532 were added to each well. Cells were cultured an additional 4 hrs. Culture supernatants were then removed and TNF present in the supernatants was quantified using an ELISA.
Flat bottom 96 well Coming High Binding ELISA plates were coated overnight (4° C.) with 150 μL/well of 3 μg/ml murine anti-human TNFa MAb (R&D Systems #MAB210). Wells were then blocked 1 h at room temperature with 200 μL/well of CaCl2-free ELISA buffer supplemented to contain 20 mg/ml BSA (standard ELISA buffer: […], 150 mM NaCl, 2 mM CaCl2, 0.15 mM thimerosal, pH 7.4). Plates were washed and replenished with 100 μl of test supernatants (diluted 1:3) or standards. Standards consisted of eleven 1.5-fold serial dilutions from a stock of 1 ng/ml recombinant human TNF (R&D Systems). Plates were incubated at room temperature for 1 h on orbital shaker (300 rpm), washed and replenished with 100 μl/well of 0.5 jig/ml goat anti-human TNFa (R&D systems #AB-210-NA) biotinylated at a 4:1 ratio. Plates were incubate for 40 min, washed and replenished with 100 μl/well of alkaline phosphatase-conjugated streptavidin (Jackson ImmunoResearch #016-050-084) at 0.02 μg/ml. Plates were incubated 30 min, washed and replenished with 200 μl well of 1 mg/ml of p-nitrophenyl phosphate. After 30 min, plates were read at 405 nm on a Vmax plate reader.
Standard curve data were fit to a second order polynomial and unknown TNF-a concentrations determined from their OD by solving this equation for concentration. TNF concentrations were then plotted Vs test compound concentration using a second order polynomial. This equation was then used to calculate the concentration of test compounds causing a 50% reduction in TNF production.

Row | SMILES | IC50
1 | N[C@@H](CCc1ccccc1)C(=O)Nc1ccc2c(-c3ccncc3)c(-c3ccc(F)cc3)[nH]c2n1 [Compound 139, 6-(4′-phenyl-1′-oxo-2′-(L)-aminobutylamino)-3-(4-pyridyl)-2-(4-fluorophenyl)-7-aza-indole] | < 20 µM
2 | N[C@H](CCc1ccccc1)C(=O)Nc1ccc2c(-c3ccncc3)c(-c3ccc(F)cc3)[nH]c2n1 [Compound 141, 6-(4′-phenyl-1′-oxo-2′-(D)-aminobutylamino)-3-(4-pyridyl)-2-(4-fluorophenyl)-7-aza-indole] | < 20 µM
3 | CC(C)COC(=O)n1c(-c2ccc(F)cc2)c(-c2ccncc2)c2ccc(NC(=O)CN)nc21 [Compound 143, 6-(2′-amino-1′-oxo-ethylamino)-3-(4-pyridyl)-2-(4-fluorophenyl)-1-isobutoxycarbonyl-7-aza-indole] | < 20 µM
4 | CC(C)(C)CNc1ccc2c(-c3ccncc3)c(-c3ccc(F)cc3)[nH]c2n1 [Compound 151, 6-(2′,2′-dimethylpropylamino)-3-(4-pyridyl)-2-(4-fluorophenyl)-7-aza-indole] | < 20 µM
5 | CC(C)CCNc1ccc2c(-c3ccncc3)c(-c3ccc(F)cc3)[nH]c2n1 [Compound 152, 6-(isoamylamino)-3-(4-pyridyl)-2-(4-fluorophenyl)-7-aza-indole] | < 20 µM
6 | CCC(CC)CNc1ccc2c(-c3ccncc3)c(-c3ccc(F)cc3)[nH]c2n1 [Compound 153, 6-(2′-ethylbutylamino)-3-(4-pyridyl)-2-(4-fluorophenyl)-7-aza-indole] | < 20 µM
7 | Fc1ccc(-c2[nH]c3nc(NCc4cccs4)ccc3c2-c2ccncc2)cc1 [Compound 154, 6-(2′-thienylmethylamino)-3-(4-pyridyl)-2-(4-fluorophenyl)-7-aza-indole] | < 20 µM
8 | CCNc1ccc2c(-c3ccncc3)c(-c3ccc(F)cc3)[nH]c2n1 [Compound 156, 6-(ethylamino)-3-(4-pyridyl)-2-(4-fluorophenyl)-7-aza-indole] | < 20 µM
9 | Cn1c(-c2ccc(F)cc2)c(-c2ccncc2)c2ccc(NC(=O)CN)nc21 [Compound 158, 6(2′-amino-1′-oxo-ethylamino)-3-(4-pyridyl)-2-(4-fluorophenyl)-1-methyl-7-aza-indole] | < 20 µM
